Experiments:
[1] = target: Bovine cardiac myosin (Bos taurus (Bovine), UniProt Q9BE39); assay: Cardiac muscle myosin II actin-activated ATPase assay (NADH-coupled); type: biochemical; parameters: key to Ratio CMMII:NMII Ki/EC50: NMII-sel: no Ki value for cardiac myosin II could be determined; the compounds had no detectable inhibitory properties versus the cardiac myosin II; conditions: for Ratio CMMII:NMII Ki/EC50: cardiac myosin II Ki over nonmuscle myosin II EC50; for Ki: 300 nM cardiac myosin, 10 μM actin, 25° C., read-out: CMMII KI
From the text: (§1) The cardiac muscle myosin II actin-activated ATPase assay is a biochemical assay. Specifically, it is an NADH (nicotinamide adenine dinucleotide)-coupled ATPase assay that relies on NADH fluorescence as a readout. Cardiac myosin is a mechanochemical energy transducer that hydrolyzes ATP to generate force in the presence of its activator, F-actin. The resulting ADP is regenerated to ATP by pyruvate kinase (PK) that transforms one molecule of phosphoenolpyruvate (PEP) to pyruvate in parallel. Subsequently, pyruvate is reduced to lactate by lactate dehydrogenase (LDH) that, in turn, oxidizes one molecule of NADH to NAD. Therefore, the decrease in NADH concentration as a function of time equals the ATP hydrolysis rate. Bovine cardiac myosin is obtained from a commercial source, Cytoskeleton. PK, LDH, ATP, PEP, and NADH are obtained from Sigma. F-actin is prepared in house from Rabbit Muscle Acetone Powder. The assay is run at 25° C. in 384 well black-wall polystyrene microplates with a total volume of 20 μl per well. NADH fluorescence is monitored for 30 minutes with an EnVision Multimode Plate Reader. The slope of the fluorescence response, which is proportional to the reaction rate, is determined by simple linear regression. Final assay conditions are 300 nM cardiac myosin, 10 μM actin, 40 U/ml LDH, 200 U/ml PK, 220 μM NADH, 1 mM PEP, 1 mM ATP in a buffer containing 10 mM 3-(N-morpholino)propanesulfonic acid (pH=7.0), 2 mM MgCl2, 0.15 mM ethylene glycol-bis(p-aminoethyl ether)-N,N,N′,N′-tetraacetic acid, 0.1 mg/mL bovine serum albumin, 0.5% (V/V) dimethyl sulfoxide (DMSO) and 1 mM dithiothreitol. Prior to testing the inhibitory activity of the compounds, a two-fold dilution series starting at 10 mM compound concentration is prepared in DMSO. Subsequently, 100 nl is transferred to each well of the measuring plate containing a mixture of myosin, LDH and PK. The enzymatic reaction is started with the addition of a mixture containing ATP, PEP, NADH and actin. The highest final compound concentration is 50 uM. 20 μM para-aminoblebbistatin in 0.5% DMSO serves as the positive control and 0.5% DMSO alone is the negative control. Reaction rates are determined by using the fluorescence responses of a dilution series of NADH included in all plates and plotted as a function of inhibitor concentration. All measurements are carried out in triplicate. Inhibitory constants are determined by fitting the 16 point dose-response data to a quadratic equation corresponding to a simple one-to-one binding model.

[2] = target: Rabbit skeletal myosin; assay: Skeletal muscle myosin II actin-activated ATPase assay; type: biochemical; conditions: 20 nM skeletal muscle myosin II; read-out: SKMMII KI
From the text: as §1
The skeletal muscle myosin II actin-activated ATPase assay is performed the same as for cardiac muscle myosin II with the following exceptions: Rabbit skeletal myosin is obtained from Cytoskeleton and the final assay conditions contain 20 nM skeletal muscle myosin II.

[3] = Photostability, percentage remaining undegraded under illumination or in the dark; conditions: for Photostability 4 hours: percentage remaining undegraded after 4 hours illumination; for Photostability 24 hours: percentage remaining undegraded after 24 hours illumination; for Photostability Dark (24 h): percentage remaining undegraded in the dark

Bovine cardiac myosin, sequence (Q9BE39 whole entry): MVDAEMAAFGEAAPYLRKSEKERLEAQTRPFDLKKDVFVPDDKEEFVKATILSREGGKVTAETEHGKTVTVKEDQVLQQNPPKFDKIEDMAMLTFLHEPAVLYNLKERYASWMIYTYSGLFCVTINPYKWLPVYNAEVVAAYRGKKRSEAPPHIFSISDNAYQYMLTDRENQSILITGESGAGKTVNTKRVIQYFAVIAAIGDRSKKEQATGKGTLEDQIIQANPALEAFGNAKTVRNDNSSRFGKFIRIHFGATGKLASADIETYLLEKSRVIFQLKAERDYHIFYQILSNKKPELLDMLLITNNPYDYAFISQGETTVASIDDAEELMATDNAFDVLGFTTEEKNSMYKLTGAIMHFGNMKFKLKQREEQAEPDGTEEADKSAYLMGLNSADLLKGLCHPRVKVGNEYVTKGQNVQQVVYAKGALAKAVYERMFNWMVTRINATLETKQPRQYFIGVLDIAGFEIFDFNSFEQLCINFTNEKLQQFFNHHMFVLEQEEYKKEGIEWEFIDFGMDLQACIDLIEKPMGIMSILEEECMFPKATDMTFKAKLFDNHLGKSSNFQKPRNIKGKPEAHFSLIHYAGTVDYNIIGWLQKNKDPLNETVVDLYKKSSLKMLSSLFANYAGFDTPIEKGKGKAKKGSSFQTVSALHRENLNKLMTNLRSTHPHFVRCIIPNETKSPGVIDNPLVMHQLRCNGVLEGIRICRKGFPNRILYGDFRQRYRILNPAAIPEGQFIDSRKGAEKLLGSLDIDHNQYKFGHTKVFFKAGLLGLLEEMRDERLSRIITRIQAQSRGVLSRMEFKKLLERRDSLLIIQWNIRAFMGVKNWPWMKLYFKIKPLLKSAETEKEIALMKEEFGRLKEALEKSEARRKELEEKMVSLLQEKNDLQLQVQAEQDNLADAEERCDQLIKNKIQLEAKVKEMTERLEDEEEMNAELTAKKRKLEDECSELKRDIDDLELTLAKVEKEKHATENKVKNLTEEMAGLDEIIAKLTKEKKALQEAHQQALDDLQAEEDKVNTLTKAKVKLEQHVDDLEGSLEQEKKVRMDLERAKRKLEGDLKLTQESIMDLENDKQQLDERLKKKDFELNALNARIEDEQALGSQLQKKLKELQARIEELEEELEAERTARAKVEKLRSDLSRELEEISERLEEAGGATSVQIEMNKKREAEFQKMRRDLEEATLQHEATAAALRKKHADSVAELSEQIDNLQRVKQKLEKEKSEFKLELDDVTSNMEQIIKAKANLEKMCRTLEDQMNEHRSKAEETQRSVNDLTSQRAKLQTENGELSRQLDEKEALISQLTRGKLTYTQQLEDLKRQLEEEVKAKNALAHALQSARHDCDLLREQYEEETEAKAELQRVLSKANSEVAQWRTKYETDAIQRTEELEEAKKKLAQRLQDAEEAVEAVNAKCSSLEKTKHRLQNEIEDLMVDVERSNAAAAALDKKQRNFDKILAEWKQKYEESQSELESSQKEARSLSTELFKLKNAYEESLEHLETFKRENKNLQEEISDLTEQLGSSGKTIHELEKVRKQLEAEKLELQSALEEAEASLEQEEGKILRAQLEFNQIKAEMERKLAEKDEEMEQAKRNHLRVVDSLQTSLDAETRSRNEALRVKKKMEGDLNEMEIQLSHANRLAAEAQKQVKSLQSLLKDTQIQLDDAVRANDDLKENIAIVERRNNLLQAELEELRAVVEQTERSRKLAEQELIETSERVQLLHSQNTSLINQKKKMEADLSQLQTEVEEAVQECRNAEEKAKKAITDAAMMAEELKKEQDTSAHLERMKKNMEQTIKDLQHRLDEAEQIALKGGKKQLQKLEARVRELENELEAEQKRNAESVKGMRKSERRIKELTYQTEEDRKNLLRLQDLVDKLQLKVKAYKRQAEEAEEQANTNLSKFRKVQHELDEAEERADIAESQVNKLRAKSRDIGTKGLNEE
Bovine cardiac myosin, sequence (P85100 whole entry partner): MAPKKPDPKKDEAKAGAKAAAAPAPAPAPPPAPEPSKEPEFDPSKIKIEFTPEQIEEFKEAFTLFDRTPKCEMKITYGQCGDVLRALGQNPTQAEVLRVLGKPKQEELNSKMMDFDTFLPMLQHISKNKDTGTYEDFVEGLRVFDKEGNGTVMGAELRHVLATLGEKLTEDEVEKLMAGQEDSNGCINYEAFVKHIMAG
Bovine cardiac myosin, sequence (Q3SZE5 whole entry partner): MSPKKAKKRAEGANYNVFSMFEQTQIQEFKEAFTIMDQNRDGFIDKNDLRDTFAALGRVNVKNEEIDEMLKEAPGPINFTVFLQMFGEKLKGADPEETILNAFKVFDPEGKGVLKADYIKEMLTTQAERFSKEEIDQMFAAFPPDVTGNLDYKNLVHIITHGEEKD

SMILES | Ratio CMMII:NMII Ki/EC50 [1] | Ki [2] | Photostability 4 hours [3] | Photostability 24 hours [3] | Photostability Dark (24 h) [3] | Ki [1]
Cc1cccc(N2CC[C@@]3(O)C(=O)c4cc(F)c(C)cc4N=C23)c1 [BPN-0026620] | NMII-sel | 16 µM | 94.1% | 27.8% | 92.8% | 
Cc1ccc2c(c1)C(=O)[C@]1(O)CCN(c3ccc4cncn4c3)C1=N2 [BPN-0027406] | 3.8 | 7.5 µM | 75.7% | 1.6% | >99% | 200 µM
Cc1cc2c(s1)C(=O)[C@]1(O)CCN(c3ccc4ncccc4c3)C1=N2 [BPN-0027181] | 33.7 | 3.1 µM | >99% | 99.0% | >99% | 91 µM
Cc1ccc2c(c1)C(=O)[C@]1(O)CCN(c3ccc(Cl)c(C)c3)C1=N2 [BPN-0026325] | NMII-sel | 13 µM | 89.0% | 14.0% | 97.8% | 
Cc1cc2cc(N3CC[C@@]4(O)C(=O)c5cc(F)c(C)cc5N=C34)ccc2o1 [BPN-0026726] | NMII-sel | 4.4 µM | 76.3% | 24.1% | 95.4% | 
CCc1ccc2cc(N3CC[C@@]4(O)C(=O)c5cc(C)c(C)cc5N=C34)ccc2n1 [BPN-0028867] | NMII-sel | 1.3 µM | 69.9% | 1% | 98.7% | 
Cc1ccc2c(c1)C(=O)[C@]1(O)CCN(c3ccc(C)c(C)c3)C1=N2 [BPN-0025903] | NMII-sel | 11 µM | 39.8% | 7.5% | 98.3% | 
Cc1cc2c(cc1C)C(=O)[C@]1(O)CCN(c3cnc(CO)c(C)c3)C1=N2 [BPN-0028733] | 3.1 | 6.8 µM | 82.1% | 14.8% | 96.6% | 27 µM
CCc1cc2c(s1)N=C1N(c3ccc(C)cc3)CC[C@@]1(O)C2=O [BPN-0026774] | 3.4 | 1.1 µM | 86.7% | 18.1% | >99% | 8.9 µM
COc1cc(N2CC[C@@]3(O)C(=O)c4cc(C)ccc4N=C23)ccn1 [BPN-0025919] | 4.6 | 1.8 µM |  |  |  | 18 µM
Cc1cc2c(cc1C(F)(F)F)N=C1N(c3ccc(C#N)cc3)CC[C@@]1(O)C2=O [BPN-0027071] | NMII-sel | 20 µM | >99% | 95.3% | >99% | 
Cc1cc2c(cc1C)C(=O)[C@]1(O)CCN(c3ccc4ncc(CN(C)C)cc4c3)C1=N2 [BPN-0028866] | NMII-sel | 400 µM | 77.8% | 2.9% | 97.8% | 
Cc1cc2c(cc1C)C(=O)[C@]1(O)CCN(c3ccc4ncncc4c3)C1=N2 [BPN-0027228] | 10.7 | 4.6 µM | >99% | 89.1% | >99% | 300 µM
Cc1ccc2c(c1)C(=O)[C@]1(O)CCN(c3ccc4nc(N)ccc4c3)C1=N2 [BPN-0027494] | NMII-sel | 4.7 µM | 63.5% | <1.0% | 88.4% | 
Cc1cc2c(cc1F)C(=O)[C@]1(O)CCN(c3ccc(C#N)cc3)C1=N2 [BPN-0026638] | 7.1 | 0.37 µM | 87.9% | 71.9% | 91.6% | 12 µM
Cc1cc2c(s1)N=C1N(c3ccc4ccoc4c3)CC[C@@]1(O)C2=O [BPN-0026639] | 4.2 | 1.1 µM | 89.8% | 49.5% | >99% | 14 µM
Cc1sc2c(c1C)C(=O)[C@]1(O)CCN(c3cccc(Br)c3)C1=N2 [BPN-0026853] | NMII-sel |  | 91.2% | 88.2% | 90.2% | 
Cc1cc2c(cc1C)C(=O)[C@]1(O)CCN(c3cnn(C)c3)C1=N2 [BPN-0026710] | 3.1 | 0.95 µM | 6.6% | <1% | >99% | 5.2 µM
Cc1cc2c(s1)N=C1N(c3ccc(C#N)c(Cl)c3)CC[C@@]1(O)C2=O [BPN-0027257] | 6.8 | 4.2 µM | 97.0% | 78.0% | 97.4% | 40 µM
Cc1cc2c(cc1C)C(=O)[C@]1(O)CCN(c3ccn4nccc4c3)C1=N2 [BPN-0027488] | NMII-sel | 0.9 µM | 49.4% | 20.0% | 96.4% | 
Cc1cc2c(cc1C)C(=O)[C@]1(O)CCN(c3ccc(C#N)cc3)C1=N2 [BPN-0026499] | 12.4 | 0.18 µM | 97.7% | 84.9% | >99% | 5.7 µM
COc1ccc2cc(N3CC[C@@]4(O)C(=O)c5cc(C)c(C)cc5N=C34)ccc2n1 [BPN-0027250] | NMII-sel | 1 µM | 45.8% | 2.7% | 70.1% | 
Cc1cc2c(cc1F)C(=O)[C@]1(O)CCN(c3ccc(C)c(Cl)c3)C1=N2 [BPN-0026606] | NMII-sel |  | 85.9% | 4.1% | 95.5% | 
Cc1ncc(N2CC[C@@]3(O)C(=O)c4cc(C(F)(F)F)ccc4N=C23)s1 [BPN-0026404] | 7.0 | 3.6 µM |  |  |  | 23 µM
Cc1ccc(N2CC[C@@]3(O)C(=O)c4cc(Cl)ccc4N=C23)cc1 [BPN-0026609] | 3.7 | 0.43 µM |  |  |  | 5.5 µM
O=C1c2cc(C(F)(F)F)ccc2N=C2N(c3ccc4ncsc4c3)CC[C@@]12O [BPN-0027219] | NMII-sel |  | 46.2% | 3.8% | 98.3% | 
O=C1c2c(sc3c2CCCC3)N=C2N(c3ccc4ncccc4c3)CC[C@@]12O [BPN-0027240] | NMII-sel |  | 94.1% | 74.6% | 98.0% | 
Cc1ccc(N2CC[C@@]3(O)C(=O)c4cc(C)c(C(F)(F)F)cc4N=C23)cc1Cl [BPN-0026786] | NMII-sel |  | 87.8% | 66.6% | 96.0% | 
Cc1cccc(N2CC[C@@]3(O)C(=O)c4cc(C)c(C(F)(F)F)cc4N=C23)c1 [BPN-0026847] | NMII-sel |  | 99.0% | 91.8% | >99% | 
Cc1ccc2c(c1)C(=O)[C@@]1(O)C(=N2)N(c2ccccc2)CC1(C)C [BPN-0026282] | NMII-sel |  | 64.0% | 7.0% | >99% | 

— US20250163056A1, “NONMUSCLE MYOSIN II INHIBITORS” (The University of Florida Research Foundation, Inc., priority 2018, published 2025)
